Assay results published in BindingDB's records for doi:10.1016/j.bmc.2006.03.042 (F. Hoffmann-La Roche, 2006).
pKi: −log10 of the molar value.

Tests used:
Experiment in all cases: Serine Protease Inhibition Assay
Coagulation factor VII = molecular target: T1, Coagulation factor VII (Homo sapiens, UniProt P08709); settings: pH 7.8; 22 °C
T1 sequence (P08709 whole entry): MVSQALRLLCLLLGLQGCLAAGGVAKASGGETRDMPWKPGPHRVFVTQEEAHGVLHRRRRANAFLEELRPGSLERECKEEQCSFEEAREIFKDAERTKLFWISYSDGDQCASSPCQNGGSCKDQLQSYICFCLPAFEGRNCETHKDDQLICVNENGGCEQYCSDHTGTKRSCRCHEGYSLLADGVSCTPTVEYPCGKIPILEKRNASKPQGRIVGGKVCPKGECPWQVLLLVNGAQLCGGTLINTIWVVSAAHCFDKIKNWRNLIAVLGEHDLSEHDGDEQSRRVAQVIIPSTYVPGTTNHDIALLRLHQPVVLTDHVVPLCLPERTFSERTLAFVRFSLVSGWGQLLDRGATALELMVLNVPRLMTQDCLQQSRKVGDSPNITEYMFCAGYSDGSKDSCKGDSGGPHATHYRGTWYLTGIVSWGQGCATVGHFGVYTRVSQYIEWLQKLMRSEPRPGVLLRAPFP
Procedure: (§1) The enzyme reactions were initiated by the addition of substrate, and the color developed from the release of p-nitroanilide from each chromogenic substrate was monitored continuously for 5 min at 405 nm on a microtiter plate reader. […] The apparent Ki values were then calculated according to the Cheng-Prusoff equation: Ki = IC50/1 + [S]/Km.

Coagulation factor X = Coagulation factor X (Homo sapiens, UniProt P00742)
Procedure: as §1

Prothrombin = Prothrombin (Homo sapiens, UniProt P00734); settings: pH 7.8; 22 °C
Procedure: as §1

Serine protease 1 = molecular target: T2, Serine protease 1 (Bos taurus, UniProt P00760)
T2 sequence (P00760 whole entry): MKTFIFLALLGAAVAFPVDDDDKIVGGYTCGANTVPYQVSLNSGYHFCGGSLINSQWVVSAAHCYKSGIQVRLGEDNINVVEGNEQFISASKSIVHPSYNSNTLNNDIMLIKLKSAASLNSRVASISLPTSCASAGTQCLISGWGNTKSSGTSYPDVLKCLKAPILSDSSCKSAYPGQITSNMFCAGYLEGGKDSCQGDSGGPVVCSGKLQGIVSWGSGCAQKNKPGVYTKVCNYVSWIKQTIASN
Procedure: as §1

Coagulation factor X, sequence (P00742 41-179 limits assumed): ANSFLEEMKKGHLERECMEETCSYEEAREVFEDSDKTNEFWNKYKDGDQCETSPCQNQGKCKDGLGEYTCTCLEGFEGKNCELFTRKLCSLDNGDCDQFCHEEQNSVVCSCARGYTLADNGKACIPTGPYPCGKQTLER
Coagulation factor X, sequence (P00742 235-488 limits assumed): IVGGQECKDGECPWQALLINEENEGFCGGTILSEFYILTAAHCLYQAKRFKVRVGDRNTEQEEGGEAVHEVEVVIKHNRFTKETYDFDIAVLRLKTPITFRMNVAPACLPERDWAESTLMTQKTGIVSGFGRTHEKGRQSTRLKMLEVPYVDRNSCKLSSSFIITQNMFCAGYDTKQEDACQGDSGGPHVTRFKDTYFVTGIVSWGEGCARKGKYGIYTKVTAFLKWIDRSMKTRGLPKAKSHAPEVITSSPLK

SMILES	pKi (Coagulation factor VII)	pKi (Coagulation factor X)	pKi (Prothrombin)	pKi (Serine protease 1)
COc1ccc(-c2ccc(C(=O)N[C@H](CO)C(C)(C)C)cc2C(=O)O)c(C(=O)Nc2ccc(C(=N)N)cc2)n1 [2-{2-[(4-carbamimidoylphenyl)carbamoyl]-6-methoxypyridin-3-yl}-5-{[(2S)-1-hydroxy-3,3-dimethylbutan-2-yl]carbamoyl}benzoic acid]	8.00	6.82	5.37	6.62
CCOc1cc(OC2CCOC2)cc(C(Nc2ccc(C(=N)N)cc2)C(=O)O)c1 (stereo not given) [(4-Carbamimidoyl-phenylamino)-[3-ethoxy-5-(tetra-hydrofuran-3-yloxy)-phenyl]-acetic acid]		5.54	4.97	< 5.17
CCOc1cc(O[C@@H]2CCOC2)c(F)c([C@@H](Nc2ccc(C(=N)N)cc2)C(=O)O)c1 [2-[(4-carbamimidoylphenyl)amino]-2-[5-ethoxy-2-fluoro-3-(oxolan-3-yloxy)phenyl]acetic acid]	7.06	5.92	5.15	5.51
CCOc1cc(O[C@@H]2CCOC2)c(F)c([C@@H](Nc2ccc(C(=N)N)cc2)C(=O)O)c1 [(2R)-2-[(4-carbamimidoylphenyl)amino]-2-{5-ethoxy-2-fluoro-3-[(3R)-oxolan-3-yloxy]phenyl}acetic acid]	7.09	5.72	5.35	5.49
CCOc1cc(OCC)c(F)c(C(Nc2ccc(C(=N)N)cc2)C(=O)O)c1 (racemic) [2-[(4-carbamimidoylphenyl)amino]-2-(3,5-diethoxy-2-fluorophenyl)acetic acid]	6.70	5.52	5.06	5.17
CCOc1cc(OCC)cc(C(Nc2ccc(C(=N)N)cc2)C(=O)O)c1 (stereo not given) [2-[(4-carbamimidoylphenyl)amino]-2-(3,5-diethoxyphenyl)acetic acid]			< 4.46	
